We go through 6 compounds from patent US20230093073A1, “METHODS AND COMPOSITIONS FOR COMMUNITY-BASED SCREENING OF POLYMICROBIAL INFECTIONS” (REGENTS OF THE UNIVERSITY OF MINNESOTA, priority 2020, published 2023).

Experiment [1] relates to sputum bacterial communities. Kind of experiment: Mucin co-culture of CF sputum bacterial communities, community growth by 16S rRNA gene qPCR. The format is cell-based. The settings on record: for effect on co-operative community growth (16S rRNA gene copies relative to untreated control, FIG. 2C): sputum co-culture, mucin sole carbon source, 1% agarose, 72 h, one fixed concentration per antibiotic; for whether presence of at least one antibiotic-susceptible population predicts community failure in co-culture: sputum co-culture vs individual MICs of P. aeruginosa and anaerobes. The method, then:
(§1) To further test this idea under clinically relevant conditions, sputum was collected from adult CF patients and isolated P. aeruginosa from each sample (FIG. 1B). Using a panel of widely used CF antibiotics (tobramycin, aztreonam, levofloxacin, piperacillin-tazobactam) and others lacking conventional activity against P. aeruginosa (trimethoprim-sulfamethoxazole, metronidazole), MICs for each isolate were determined under nutrient-rich conditions (akin to standard AST procedures). Concurrently, enrichment culturing was performed to isolate anaerobic mucin-degrading bacteria from each sample (10) and antibiotic MICs were similarly determined. Finally, small aliquots of remaining sputa were diluted in buffer and split between culture tubes containing mucin as the sole carbon source, 1% agarose, and one of the antibiotics listed above. Using these cultures in which P. aeruginosa and anaerobic mucin-degraders were co-dependent on mucin utilization, how co-operative growth affected antibiotic sensitivity relative to independent culture was interrogated.
It was assessed whether co-operative community growth (see FIG. 1A) would affect antibiotic susceptibility. Specifically, we hypothesized that the sensitivity of the overall sputum bacterial community would be set by the least tolerant among P. aeruginosa and anaerobic subpopulations. To test this hypothesis, total 16S rRNA gene copy number was used to quantify community growth in response to each antibiotic relative to untreated controls (FIG. 2C).
Co-culture. Under anaerobic conditions, 200 μL of homogenized sputum was placed into one of eight tubes to which a pre-determined concentration of each antibiotic was added (aztreonam, 100 μg/mL; doxycycline, 6.5 μg/mL; levofloxacin, 6.5 μg/mL; metronidazole, 3.5 μg/mL; piperacillin/tazobactam, 6.5 μg/mL; tobramycin, 500 μg/mL; trimethoprim/sulfamethoxazole, 3.5 μg/mL). […] 200 μL of molten 2% low melting point agarose in PBS was added to each tube and homogenized by pipetting. Each mixture was then added to 0.5 mL Pyrex culture tubes forming a gel upon cooling. Upon removal from the anaerobic chamber, tubes were incubated at 37° C. for 72 h and frozen at −80° C.
DNA extraction. Agar plugs were removed from the culture tubes, transferred to a Matrix E Lysing Tubes (MP Biomedicals) and two volumes of lysis buffer were added. Tubes were vortexed on a bead beater for 2×30 s, followed by centrifugation at 9,500×g for 1 min. Supernatant was transferred to a new tube, incubated at 75° C. for 10 min and returned to room temperature. Lysozyme and RNAse A were then added to final concentrations of 0.2 mg/mL and 50 μg/mL, respectively, and incubated for 1 h at 37° C. […], of 10% SDS and proteinase K (2 mg/mL) were added and incubated overnight at 55° C.
DNA was extracted by adding one volume of phenol:chloroform:iosoamyl alcohol (25:24:1) and vortexing to emulsify. Samples were centrifuged at 21,000×g for 20 min and the upper aqueous layer transferred to a new tube. One volume of chloroform:IAA was then added followed by centrifugation at 21,000×g for 15 min. The upper layer was transferred to a new tube. 3M sodium acetate (pH 5.2) was added and mixed gently, followed by the addition of 1 volume of isopropanol and 3 μL GlycoBlue. Samples were centrifuged for 20 min at 21,000×g and supernatant removed. Pellets were washed using 80% ethanol, air dried for ˜30 min and resuspended in 10 mM Tris (pH 8) prior to storage at −80° C.
qPCR. Community growth was estimated by quantifying 16S rRNA gene copies from co-culture DNA.

The test system of experiment [2] is anaerobic mucin-degrading bacteria. Briefly: Anaerobic antibiotic susceptibility testing (MIC) of enrichment cultures from CF sputum in minimal mucin medium. The format is cell-based. The settings on record: MMM, 37° C., 72 h. As for the experimental part:
as §1
Anaerobic enrichment. […]
Antibiotic susceptibility testing. […] Plates were resuspended by pipetting and read spectrophotometrically at OD600 using a BioTek Synergy plate reader. MICs were determined based on the antibiotic concentration required to achieve a 90% reduction in culture density relative to antibiotic-free controls.

The subject of a further experiment is P. aeruginosa. Briefly: Antibiotic susceptibility testing (MIC) of P. aeruginosa isolates from CF sputum in LB. The settings on record: isolates from adult CF sputum, nutrient-rich LB, aerobic, 37° C., 24 h. The format is cell-based, Pseudomonas aeruginosa. As for the experimental part: as §1
Pseudomonas aeruginosa isolation. 100 μL of sputum was streaked onto Pseudomonas isolation agar and incubated at 37° C. for 72 hours. A single isolate from each sample was screened by PCR to confirm identity and stored in 30% glycerol at −80° C.
Antibiotic susceptibility testing. For anaerobic AST, 5 μL of enrichment culture was added to each well of microtiter plate containing MMM supplemented with gradients of seven antibiotics (aztreonam 0-500 μg/mL; doxycycline, 0-25 μg/mL; levofloxacin, 0-25 μg/mL; metronidazole, 0-25 μg/mL; piperacillin/tazobactam, 0-25 μg/mL; tobramycin, 0-500 μg/mL; trimethoprim/sulfamethoxazole, 0-25 μg/mL). Plates were wrapped in parafilm and incubated anaerobically at 37° C. for 72 h. For P. aeruginosa, isolates were grown in lysogeny broth (LB) to an OD600 of 0.5. 5 μL was then added to a similar plate containing LB as the base medium and incubated aerobically at 37° C. for 24 h. Plates were resuspended by pipetting and read spectrophotometrically at OD600 using a BioTek Synergy plate reader. MICs were determined based on the antibiotic concentration required to achieve a 90% reduction in culture density relative to antibiotic-free controls.

In experiment [3] the test system is P. aeruginosa and anaerobic bacteria capable of degrading mucins. The settings on record: cited from earlier work.

For `NC[C@H]1O[C@H](O[C@H]2[C@H](O)[C@@H](O[C@H]3O[C@H](CO)[C@@H](O)[C@H](N)[C@H]3O)[C@H](N)C[C@@H]2N)[C@H](N)C[C@@H]1O` [tobramycin], the “effect on co-operative community growth (16S rRNA gene copies relative to untreated control, FIG. 2C)” value in experiment [1] was “striking effect on co-operative cultures”. The “efficacy against anaerobic enrichments (MICs, FIG. 2B)” value in experiment [2] is “all anaerobic enrichments demonstrated resistance”. The “efficacy against P. aeruginosa isolates (MICs, FIG. 2A)” value in the experiment on P. aeruginosa was “broadly effective”.
On to piperacillin-tazobactam, for which the “whether presence of at least one antibiotic-susceptible population predicts community failure in co-culture” value in experiment [1] is recorded as “largely predictive of community failure”. Also, in the experiment with P. aeruginosa, the “efficacy against P. aeruginosa isolates (MICs, FIG. 2A)” value was “some isolates were resistant”.
For `CC1(C)S[C@@H]2[C@H](NC(=O)[C@H](N)c3ccccc3)C(=O)N2[C@H]1C(=O)O` [ampicillin], the “P. aeruginosa growth in co-culture with mucin-degrading anaerobes” value in experiment [3] (co-culture on mucins as sole carbon source, inhibition of anaerobic subpopulation) is reported as “constrained P. aeruginosa growth”. Moreover, the “resistance of P. aeruginosa determined by standard AST” value in experiment [3] (standard AST, monoculture) is on record as “high intrinsic resistance”.
Take `C[C@H]1[C@H](NC(=O)/C(=N\OC(C)(C)C(=O)O)c2csc(N)n2)C(=O)N1S(=O)(=O)O` [aztreonam]: the “growth of two aztreonam-resistant P. aeruginosa isolates in co-culture” value in experiment [1] (co-culture with aztreonam-susceptible anaerobic mutualists, aztreonam 100 μg/mL) is given as “restricted in co-culture”. Moreover, the “whether presence of at least one antibiotic-susceptible population predicts community failure in co-culture” value in experiment [1] is “largely predictive of community failure”. Further, in experiment [2], the “efficacy against anaerobic enrichments (MICs, FIG. 2B)” value was “variable efficacy”. Besides, the “efficacy against P. aeruginosa isolates (MICs, FIG. 2A)” value in the experiment with P. aeruginosa was “some isolates were resistant”.
Regarding trimethoprim-sulfamethoxazole, in experiment [1] (patients 3 and 4, antibiotic predicted ineffective from individual MICs, T/S 3.5 μg/mL), the “community growth, patients 3 and 4” value is “surprisingly inhibited”. Also, in experiment [1], the “whether presence of at least one antibiotic-susceptible population predicts community failure in co-culture” value is recorded as “largely predictive of community failure” and the “effect on co-operative community growth (16S rRNA gene copies relative to untreated control, FIG. 2C)” value is “variable effects”. In the experiment on P. aeruginosa, the “efficacy against P. aeruginosa isolates (MICs, FIG. 2A)” value is on record as “some isolates were resistant”.
For the compound `Cc1ncc([N+](=O)[O-])n1CCO` [metronidazole], the “sputum community growth, patient 5” value in experiment [1] (patient 5, both subpopulations independently resistant, metronidazole 3.5 μg/mL) is given as “robust”. Also, the “effect on co-operative community growth (16S rRNA gene copies relative to untreated control, FIG. 2C)” value in experiment [1] is on record as “striking effect on co-operative cultures”. Further, the “efficacy against P. aeruginosa isolates (MICs, FIG. 2A)” value with P. aeruginosa is “ineffective”.
